Source: patent US6342504B1, “Aromatic heterocyclic derivatives as enzyme inhibitors” (priority 1994, dated 2002)
Counter-ions that a name gives are not always drawn. Like-named read-outs stand apart in the source and are kept apart here.

Legend:
[1] = test system: FeCl3-induced occlusive thrombus in rat carotid artery; experiment: Rat model of FeCl3-induced platelet-dependent arterial thrombosis; assay type: in vivo; details: Rattus norvegicus, read-out: ED50 for thrombus prevention (dose that prevents complete thrombotic occlusion in 50% of animals)
Description: Rat Model of FeCl3-induced Platelet-dependent Arterial Thrombosis
Kurz, K. D., Main, B. W., and Sandusky, G. E., Thromb. […] In this model a platelet-rich, occlusive thrombus is formed in a segment of the rat carotid artery treated locally with a fresh solution of FeCl3 absorbed to a piece of filter paper. The FeCl3 is thought to diffuse into the treated segment of artery and cause de-endothelialization of the affected vessel surface. […] The effect of a test compound on the incidence of occlusive thrombus formation following the application of the FeCl3 is monitored by ultrasonic flowtometry and is used as the primary end point. The use of flowtometry to measure carotid artery blood flow, is a modification of the original procedure in which thermal detection of clot formation was employed. Kurz, K. D., Main, B. W., and Sandusky, G. E., Thromb.
Male Harlan Sprague Dawley rats (420-450 g) were acclimated at least 72 hours prior to use and fasted for 12 hours prior to surgery with free access to water. The animals were prepared, anesthetized with Nembutal followed by the insertion of catheters for blood pressure monitoring, drug and anesthesia delivery. The left carotid artery was isolated by making a midline cervical incision followed by blunt dissection and spreading techniques to separate a 2 cm segment of the vessel from the carotid sheath. A silk suture is inserted under the proximal and distal ends of the isolated vessel to provide clearance for the placement of a ultrasonic flow probe (Transonic) around the proximal end of the vessel. The probe is then secured with a stationary arm.
The test compound was administered as a single intravenous bolus at the doses outlined in Table 4 after placement of the flow probe and 5 minutes prior to the thrombogenic stimulus. At t=0, a 3 mm diameter piece of filter paper (Whatman #3) soaked with 10 microliters of a 35% solution of fresh FeCl3 (made up in water) was applied the segment of isolated carotid artery distal to the flow probe. Blood pressure, blood flow, heart rate, and respiration were monitored for 60 minutes.
The incidence of occlusion (defined as the attainment of zero blood flow) was recorded as the primary end point.
This allows a direct comparison of the antithrombotic efficacy of [3-[(benzylsulfonyl)amino]-2-oxo-1,2-dihydropyridyl]acetyl-L-argininal, with other antithrombotic agents which have also been evaluated in this model as described above. Table 5 lists the ED50 values for several well known anticoagulant agents in this model compared to [3-[(benzylsulfonyl)amino]-2-oxo-1,2-dihydropyridyl]acetyl-L-argininal.

[2] = test system: clot formation on silk thread in A-V shunt; experiment: Multiple extracorporeal (A-V) shunt model in rats utilizing oral dosing; assay type: in vivo; details: rat, read-out: ED50 value (dose that reduced the clot size by 50%)
Protocol: The compounds of Example 10 and 143 were evaluated in a multichamber A-V shunt model in rats. The A-V shunt model is one of the most common and generally used systems to evaluate antithrombotic compounds: Smith, J. R. and White, A. M. Br. J. Pharmacol., 77: 29-38 (1982). In this model a localized clot made up of primarily fibrin with some platelet and macrophage involvement (Shand, R. A. and Smith, J. R. and Wallis, R. B. Thromb. Res., 36: 223-232 (1984)), is formed on an artificial thrombogenic surface (typically a segment of silk or cotton thread) contained in a sialstic chamber which is part of an exteriorized shunt between the carotid artery and jugular vein. The procedure described in this Example is a modified A-V shunt model that allows for oral dosing of test agents and subsequent evaluation of efficacy over a two to three hour window in time.
Briefly, male Harlan Sprague Dawley rats (420-450 g) were acclimated at least 72 hours prior to use. The animals were fasted for 12 hours prior to surgery with free access to water. Unanesthetized animals were grouped into three or four dosage groups (six or seven animals per group) and administered test agents orally via gavage needle, at doses of 1.0, 3.0, 10 and 50 mg/kg for the compound of Example 10, and 3.0, 10 and 30 mg/kg for the Compound of Example 143. Immediately after oral dosing, animals were anesthetized with sodium pentobarbital (Nembutal) given intraperitoneally at a dose of 50 mg/kg body weight, and placed on a isothermal pad to maintain body temperature. The level of anesthesia was monitored every 15 minutes by neuro-response to a tail pinch, respiration and core temperature. The desired depth of surgical anesthesia was maintained by administering subsequent doses (5 mg/kg) intravenously. The left femoral artery was catheterized using standard procedures for blood pressure monitoring and blood sampling, with polyethylene tubing (PE50). The left femoral vein was catheterized with PE50 tubing for delivery of anethestic.
The exteriorized shunts were assembled by connecting two pieces of saline filled 12.5 cm PE90 tubing with a 6 cm piece of PE160 tubing containing a 6 cm piece of silk suture size 3 and clamped with hemostats. A small 0.5 cm portion of the silk thread protrudes from the junction of the chamber with the shunt. The left jugular vein and right carotid artery were catheterized with the ends of the PE90 shunt. The shunt was unclamped and blood allowed to flow from the carotid artery, through the chamber, and exit the shunt via the jugular vein. After 15 minutes, both sides of the chamber were clamped and the suture containing the clot removed following detachment of the arterial end of the chamber. The clot was immediately weighed and recorded. This procedure takes place at predetermined intervals (60, 90, 120, and 150 minutes after oral dosing) to allow assessment of efficacy over a large window in time. Four shunts were placed with flow initiated at 45, 75, 105, and 135 minutes after oral compound administration. Clot weight from the four shunts was the primary endpoint of the protocol. Blood pressure, heart rate core temperature and respiration were monitored continuously. Following termination of the experiment the animals were euthanized with a 120 mg/kg dose of Nembutal. One experiment was performed per animal.
ED50 values were calculated at 60, 90, 120, and 150 minutes after oral dosing of test compound. ED50 is that dose that reduced the clot size by 50%. […]

human aPC = molecular target: T1, human aPC (Homo sapiens, UniProt P04070); experiment: biochemical; details: 30 minute incubation
T1 construct: purchased Hematologic Technologies, Inc
T1 sequence (P04070 43-197): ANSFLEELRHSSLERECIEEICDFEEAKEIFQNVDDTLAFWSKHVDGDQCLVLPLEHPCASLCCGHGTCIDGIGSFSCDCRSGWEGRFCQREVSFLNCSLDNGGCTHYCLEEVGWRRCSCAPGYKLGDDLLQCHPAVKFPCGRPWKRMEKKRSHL
T1 sequence (P04070 212-461): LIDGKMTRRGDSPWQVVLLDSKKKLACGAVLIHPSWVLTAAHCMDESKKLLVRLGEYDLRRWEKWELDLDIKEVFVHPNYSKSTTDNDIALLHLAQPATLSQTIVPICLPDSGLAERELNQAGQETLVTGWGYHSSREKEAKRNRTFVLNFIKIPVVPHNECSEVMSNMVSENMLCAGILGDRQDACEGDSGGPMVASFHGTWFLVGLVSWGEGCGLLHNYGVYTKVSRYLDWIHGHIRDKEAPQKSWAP
Protocol: (§1) The buffer used for all assays was HBSA (10 mM HEPES, pH 7.5, 150 mM sodium chloride, 0.1% bovine serum albumin).
Following a 30 minute incubation at ambient temperature, 50 microliters of the substrate at the concentrations specified below were added to the wells, yielding a final total volume of 200 microliters.
Activated Protein C (aPC) Assay
aPC catalytic activity was determined using the chromogenic substrate, Pefachrome PC (delta-carbobenzloxy-D-lysine-L-prolyl-L-arginine-p-nitroaniline dihydrochloride), obtained from Pentapharm Ltd.). […] Purified human aPC was obtained from Hematologic Technologies, Inc. The enzyme was diluted into HBSA prior to assay in which the final concentration was 1.0 nM.

human plasmin = human plasmin (Homo sapiens, UniProt P00747); experiment: biochemical
Chain of human plasmin (P00747 97-580): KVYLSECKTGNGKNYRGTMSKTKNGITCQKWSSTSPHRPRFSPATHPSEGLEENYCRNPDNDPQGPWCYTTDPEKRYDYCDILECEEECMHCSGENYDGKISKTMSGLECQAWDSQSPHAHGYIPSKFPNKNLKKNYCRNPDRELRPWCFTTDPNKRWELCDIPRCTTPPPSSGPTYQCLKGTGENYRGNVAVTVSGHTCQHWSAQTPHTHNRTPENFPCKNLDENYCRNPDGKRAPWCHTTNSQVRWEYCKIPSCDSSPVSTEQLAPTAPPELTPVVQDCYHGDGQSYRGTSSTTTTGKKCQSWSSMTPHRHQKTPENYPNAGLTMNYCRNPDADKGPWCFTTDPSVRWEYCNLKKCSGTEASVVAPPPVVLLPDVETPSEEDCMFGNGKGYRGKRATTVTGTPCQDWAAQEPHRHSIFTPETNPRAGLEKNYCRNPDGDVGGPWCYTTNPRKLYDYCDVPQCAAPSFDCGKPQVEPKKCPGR
Chain of human plasmin (P00747 581-810): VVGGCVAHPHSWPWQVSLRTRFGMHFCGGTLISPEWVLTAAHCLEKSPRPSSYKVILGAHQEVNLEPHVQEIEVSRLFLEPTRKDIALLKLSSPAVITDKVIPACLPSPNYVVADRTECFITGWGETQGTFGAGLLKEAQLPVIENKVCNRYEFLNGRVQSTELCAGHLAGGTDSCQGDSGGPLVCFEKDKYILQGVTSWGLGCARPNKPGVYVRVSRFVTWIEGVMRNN
Protocol: (§2) The ability of compounds of the present invention to act as a selective inhibitor of thrombin catalytic activity was assessed by determining the concentration of compound which inhibited the activity of this enzyme by 50%, (IC50), and comparing this value to that determined for all or some of the following related serine proteases: recombinant tissue plasminogen activator (rt-PA), plasmin, activated protein C, chymotrypsin, factor Xa and trypsin.
as §1
(§3) The assay for IC50 determinations was conducted by combining in appropriate wells of a Corning microtiter plate, 50 microliters of HBSA, 50 microliters of the test compound at a specified concentration (covering a broad concentration range) diluted in HBSA (or HBSA alone for VO (uninhibited velocity) measurement), and 50 microliters of the enzyme diluted in HBSA. Following a 30 minute incubation at ambient temperature, 50 microliters of the substrate at the concentrations specified below were added to the wells, yielding a final total volume of 200 microliters. The initial velocity of chromogenic substrate hydrolysis was measured by the change in absorbance at 405 nm using a Thermo Max® Kinetic Microplate Reader over a 5 minute period in which less than 5% of the added substrate was utilized. The concentration of added inhibitor which caused a 50% decrease in the initial rate of hydrolysis was defined as the IC50 value.
Plasmin catalytic activity was determined using the chromogenic substrate, S-2366 [L-pyroglutomyl-L-prolyl-L-arginine-p-nitroaniline hydrochloride], which was obtained from Pharmacia-Upjohn. The substrate was made up in deionized water followed by dilution in HBSA prior to the assay in which the final concentration was 300 micromolar (about 2.5-times Km). Purified human plasmin was obtained from Enzyme Research Laboratories, Inc. The enzyme was diluted into HBSA prior to assay in which the final concentration was […].

Human rt-PA (Activase) = molecular target: T2, Human rt-PA (Activase) (Homo sapiens, UniProt P00750); experiment: biochemical; details: 30 minute incubation
T2 construct: purchased Genentech Inc
T2 sequence (P00750 36-562): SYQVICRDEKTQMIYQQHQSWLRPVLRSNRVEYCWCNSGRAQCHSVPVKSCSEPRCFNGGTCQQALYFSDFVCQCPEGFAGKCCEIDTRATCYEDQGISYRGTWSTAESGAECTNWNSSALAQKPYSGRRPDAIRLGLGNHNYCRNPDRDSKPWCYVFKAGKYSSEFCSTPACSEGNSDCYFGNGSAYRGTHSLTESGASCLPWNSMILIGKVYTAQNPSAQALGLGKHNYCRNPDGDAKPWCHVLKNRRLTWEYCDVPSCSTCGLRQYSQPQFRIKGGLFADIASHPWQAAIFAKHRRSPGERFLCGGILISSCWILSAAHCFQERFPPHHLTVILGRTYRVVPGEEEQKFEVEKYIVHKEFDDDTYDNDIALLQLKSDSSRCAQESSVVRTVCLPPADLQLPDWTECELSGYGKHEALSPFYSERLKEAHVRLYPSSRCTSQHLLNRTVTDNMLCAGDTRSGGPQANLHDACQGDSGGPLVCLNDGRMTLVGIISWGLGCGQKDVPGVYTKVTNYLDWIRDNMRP
Protocol: as §2, §1, §3
Recombinant Tissue Plasminogen Activator (rt-PA) Assay
rt-PA catalytic activity was determined using the substrate, Pefachrome t-PA (CH3SO2-D-hexahydrotyrosine-glycyl-L-arginine-p-nitroaniline, obtained from Pentapharm Ltd.). The substrate was made up in deionized water followed by dilution in HBSA prior to the assay in which the final concentration was 500 micromolar (about 3-times Km). Human rt-PA (Activase®) was obtained from Genentech Inc. The enzyme was reconstituted in deionized water and diluted into HBSA prior to the assay in which the final concentration was 1.0 nM.

human alpha thrombin = molecular target: T3, human alpha thrombin (Homo sapiens, UniProt P00734); experiment: Thrombin (fIIa) IC50 assay, chromogenic substrate Pefachrome t-PA; assay type: biochemical
T3 construct: Purified human alpha-thrombin; purchased Enzyme Research Laboratories, Inc
Protocol: as §2, §1, §3
Enzyme activity was determined using the chromogenic substrate, Pefachrome t-PA (CH3SO2-D-hexahydrotyrosine-glycyl-L-Arginine-p-nitroaniline, obtained from Pentapharm Ltd.). The substrate was reconstituted in deionized water prior to use. Purified human a-thrombin was obtained from Enzyme Research Laboratories, Inc. The buffer used for all assays was HBSA (10 mM HEPES, pH 7.5, 150 mM sodium chloride, 0.1% bovine serum albumin).
IC50 determinations were conducted where HBSA ([…]), a-thrombin (50 μl) and inhibitor (50 μl) (covering a broad concentration range), were combined in appropriate wells and incubated for 30 minutes at room temperature prior to the addition of substrate Pefachrome-t-PA (50 μl). The initial velocity of Pefachrome t-PA hydrolysis was measured by the change in absorbance at 405 nm using a Thermo Max® Kinetic Microplate Reader over a 5 minute period in which less than 5% of the added substrate was utilized. The concentration of added inhibitor which caused a 50% decrease in the initial rate of hydrolysis was defined as the IC50 value.

[3] = 30 minute incubation, read-out: Plasmin IC50 (Table 3B)
[4] = 1.0 nM enzyme, read-out: IC50 aPC (Table 2)
[5] = 30 minute incubation, read-out: IC50 Plasmin (Table 2)
[6] = 1.0 nM enzyme, read-out: IC50 rt-PA (Table 2)

CC1CNc2c(cccc2S(=O)(=O)N[C@@H](CCCNC(=N)N)C(=O)N2CC[C@@H](C)C[C@@H]2C(=O)O)C1 (stereo partly drawn) [Argatroban, 2R,4R-4-methyl-1-[N-2-(3-methyl-1,2,3,4-tetrahydro-8-quinolinesulfonyl)-L-argininal]-2-piperdinecarboxylic acid, reference compound]
ED50 [1]: 3.8 mg/kg

N=C(N)NCCCC(C=O)NC(=O)Cn1cccc(NS(=O)(=O)Cc2ccccc2F)c1=O (centres unmarked) [Compound 121J]
ED50 ([2]; 1 h, 60 min after oral dose): 22 mg/kg | ED50 ([2]; 1.5 h, 90 min after oral dose): 20 mg/kg | ED50 ([2]; 2 h, 120 min after oral dose): 24 mg/kg | ED50 ([2]; 150 min after oral dose): 28 mg/kg

COc1ccc(OC)c(S(=O)(=O)Nc2ccc(C)n(CC(=O)N[C@H](C=O)CCCNC(=N)N)c2=O)c1 [Compound 126C, 3-[(2,5-dimethoxyphenyl)sulfonylamino-6-methyl-2-oxo-1,2-dihydro-pyridyl]acetyl-L-argininal]
aPC IC50 (Table 3B) (human aPC): inactive | IC50 (human plasmin; [3]): > 2500 nM | rtPA IC50 (Table 3B) (Human rt-PA (Activase)): inactive | IC50 (human alpha thrombin): 0.519 nM

CCc1ccc(NS(=O)(=O)c2cc(F)ccc2C)c(=O)n1CC(=O)N[C@H](C=O)CCCNC(=N)N [Compound 126F, [3-(5-fluoro-2-methylphenyl)sulfonylamino-6-ethyl-2-oxo-1,2-dihydro-pyridyl]acetyl-L-argininaln]
aPC IC50 (Table 3B) (human aPC): inactive | IC50 (human plasmin; [3]): ~2500 nM | rtPA IC50 (Table 3B) (Human rt-PA (Activase)): inactive | IC50 (human alpha thrombin): 0.71 nM

CS(=O)(=O)Nc1c(CCc2ccccc2)ccn(CC(=O)N[C@H](C=O)CCCNC(=N)N)c1=O [Compound 134B, [3-methylsulfonylamino-4-(2-phenylethyl)-2-oxo-1,2-dihydropyridyl]acetyl-L-argininal]
aPC IC50 (Table 3B) (human aPC): inactive | IC50 (human plasmin; read-out: Plasmin IC50 (Table 3B)): > 2500 nM | IC50 (Human rt-PA (Activase); read-out: rtPA IC50 (Table 3B)): > 2500 nM | IC50 (human alpha thrombin): 7.95 nM

COc1cccc(S(=O)(=O)Nc2ccc(C)n(CC(=O)N[C@H](C=O)CCCNC(=N)N)c2=O)c1 [Compound 153A, [3-(3-methoxylphenyl)sulfonylamino-6-methyl-2-oxo-1,2-dihydro-pyridyl]acetyl-L-argininal]
IC50 (human aPC; read-out: aPC IC50 (Table 3C)): > 2500 nM | IC50 (human plasmin; 30 minute incubation, read-out: Plasmin IC50 (Table 3C)): > 2500 nM | IC50 (Human rt-PA (Activase); read-out: rtPA IC50 (Table 3C)): > 2500 nM | IC50 (human alpha thrombin; 30 minute incubation, read-out: Thrombin IC50 (Table 3C)): 0.456 nM

N=C(N)NCCC[C@@H](C=O)NC(=O)Cn1cccc(NS(=O)(=O)c2ccccc2)c1=O [Compound B, (3-phenylsulfonylamino-2-oxo-1,2-dihydro-pyridyl)acetyl-L-argininal]
IC50 (human aPC; [4]): > 2500 nM | IC50 (human plasmin; [5]): > 2500 nM | IC50 (Human rt-PA (Activase); [6]): > 2500 nM | IC50 (human alpha thrombin): 0.98 nM

Cc1ncc(NS(=O)(=O)Cc2ccccc2)c(=O)n1CC(=O)N[C@H](C=O)CCCNC(=N)N [Compound D, (5-benzylsulfonylamino-2-methyl-6-oxo-1,6-dihydro-1-pyrimidinyl)acetyl-L-argininal, trifluoroacetate salt]
IC50 (human aPC; [4]): > 2500 nM | IC50 (human plasmin; [5]): > 2500 nM | IC50 (Human rt-PA (Activase); [6]): > 2500 nM | IC50 (human alpha thrombin): 2.32 nM
